In data set [1] the test system is C57 mice. Nature of the data set: Forced swim test of oral administration in mice (antidepressant activity). The class given is in vivo. The note with it: reduction of immobility time vs blank group, single gavage 20 mg/kg; for inhibition in vivo at 20 mg/kg: Mus musculus, po. Here is the method: To investigate the effects of different compounds on depression-like behavior in C57 mice by single oral administration of 20 mg/kg for 1 h and 24 h followed by forced swimming experiment, respectively.
The experimental animals were 6-week-old C57 mice, male, C57 breed mice purchased from Shanghai Slaughter Laboratory Animal Co. Ltd, weighing 20.45±0.19 g. The animals arrived at the Animal Breeding Center of the Shanghai Institute of Pharmaceutical Sciences, Chinese Academy of Sciences (Animal Production License: SCXK9[Shanghai]2004-0002, Use License: SYXK [Shanghai]2003-0029) before the experiments and were acclimated to the animal facilities for more than 3 days, 6 animals/cage were feed. The feeding environment was room temperature 23±0.2° C. and 12/12 h day/night alternating light and dark. Prior to behavioral testing, animals were moved to the behavioral testing room 2 hours in advance to acclimatize them to the environment and reduce their nervousness.
Preparation of the test material: the test compounds were weighed and dissolved in 0.9% NaCl solution, mixed well, and prepared into 1 mg/ml and 2 mg/ml solution for use, respectively.
24 h prior to drug administration, mice were placed in a cylindrical tank to acclimatize to the water environment for 10 min. On the day of the behavioral test, the animals were administered the drug once, by gavage/intraperitoneal injection at 1 h and 24 h prior to the behavioral test, respectively (as shown in Table 1).
The antidepressant effect of the compounds was evaluated by their ability to cause a reduction in the immobility time of the animals in the forced swim test compared to the blank group.

The nature of data set [2]: Brain tissue distribution study in rats. The note with it: SD rats, 10 mg/kg gavage. Format: in vivo. The procedure: Healthy male SD rats, randomly grouped with 3 rats in each group, were given the test compounds by gavage.
(§1) Each test compound was dissolved in saline to form a certain concentration solution for administration.
Fasting but not abstaining from water for 12-14 hours on the day before administration, and food was given 4 h after administration.
Brain tissues were collected after the animals were bled, cleaned, and homogenized with 50% ice methanol 1:4 (m/v). The collection time points were 5 min, 10 min, 30 min, and 2 h after the administration of subjects; 30.0 μL of tissue samples were taken (the samples were taken from the refrigerator at −80° C. and vortexed for 30 s after natural dissolution at room temperature) into 1.5 mL centrifugal tubes, and 300.0 μL of the internal standard solution (30 ng/mL buspirone in acetonitrile) was added; the samples were vortexed for 60 s, and centrifuged for 3 min (the centrifugal force was 12,000 rpm). 75 μL of the supernatant was transferred to a 96-well plate containing an equal volume of water, shaken to mix well and then sampled for LC-MS/MS analysis, the sample volume is 10 μL.

Data set [3] can be described thus: Solid-state chemical stability under different storage conditions (liquid chromatography). The class given is physicochemical. The following applies: 40° C., 75% RH; for Stability of solid state compound, 0 Days (%): liquid chromatography. Here is the method:
The HPLC conditions were as follows:
Configuration of test solution: appropriate amount of sample was dissolved and diluted with a diluent (0.03 mol/L phosphate buffer-acetonitrile (80:20)) to make 1 mg/mL solution.
Chromatographic conditions: according to the high performance liquid chromatography (Chinese Pharmacopoeia 2020 version of the four general 0512) test, using octadecyl-bonded silica gel (Agilent Eclipse Plus C18, 4.6 mm*250 mm, 5.0 μm, P/N for 959990-902 or a chromatographic column with equivalent performance) as a filler; 0.03 mol/L phosphate buffer (4.08 g of potassium dihydrogen phosphate was dissolved in 1000 ml of water and shaken well) was used as mobile phase A and acetonitrile as mobile phase B at a flow rate of 1 ml/min, the column temperature was 30° C., the detection wavelength was 220 nm, the injection volume was 10 ul, and the sample plate was controlled to 8° C. and running for 65 min. Gradient elution was performed according to the following table: […]
Configuration of test solution: appropriate amount of the product was dissolved and diluted with a diluent (0.1% phosphoric acid-acetonitrile (80:20)) to make 1 mg/mL solution.
Chromatographic conditions: according to the high performance liquid chromatography (Chinese Pharmacopoeia 2020 version of the four general 0512) test, using octadecyl bonded silica gel (Agilent Eclipse Plus C18, 4.6 mm*250 mm, 5.0 μm, P/N 959990-902 or a chromatographic column with equivalent performance) as a filler; 0.1% phosphate buffer (1 ml of phosphoric acid in 1000 ml of water and shake well) as mobile phase A, acetonitrile as mobile phase B, flow rate of 1 ml/min, column temperature of 30° C., detection wavelength of 220 nm, injection volume of 10 ul, running for 48 minutes. Gradient elution was performed according to the following table: […]

Data set [4] is described as follows: In vivo pharmacokinetic experiments in beagle dogs. The following applies: beagle dog. The procedure:
Healthy male beagle dogs, randomly grouped with 3 dogs in each group, were given the test compound by gavage or intravenous injection.
as §1
Fasting but not abstaining from water for 12-14 hours on the day before administration, and food was given 4 h after administration; no fasting was done for the intravenous experiments.
Each animal was sampled with 0.6 mL of blood each time through the jugular vein and anticoagulated with EDTAK2. The collection time points were 5 min, 10 min, 15 min, 30 min, 1 h, 2 h, 4 h, 6 h, 8 h, and 24 h after administration of the subject in group PO; group IV: 2 min, 5 min, 15 min, 30 min, 1 h, 2 h, 4 h, 6 h, 24 h after administration of the subject. Blood samples were placed on ice after collection and centrifuged to separate plasma within 30 min (centrifugation conditions: 5000 rpm, 10 min, 4° C.). The samples were stored at −80° C. before analysis.

The subject of data set [5] is C57 mice. Nature of the data set: Forced swim test of oral administration in mice (antidepressant activity). The class given is in vivo. The following applies: Mus musculus, reduction of immobility time vs blank group, abdominal injection 10 mg/kg.
Where [6] appears, read: test 1 h after dosing, read-out: 1 h inhibition (%).
[7] abbreviates: test 24 h after dosing, read-out: 24 h inhibition (%).

Read-outs that look alike come from different tables or passages of the source.

Regarding `N[C@@]1(c2ccccc2Cl)CCC[C@@H](O)C1=O` [(2R,6R)-HNK, reference compound], in the data set with C57 mice [1] (test 1 h after dosing), the “1 h inhibition (%)” value turned out to be 21.1 ± 1.4%. In addition, in the data set with C57 mice [1] (test 24 h after dosing), the “24 h inhibition (%)” value is recorded as 24.8 ± 6.9%. Besides, in data set [2], the brain/plasma ratio is 0.95, the AUC0-t brain amounted to 2480 ng·h/g and the Cmax brain is reported as 1495 ng/g. Further, in data set [2] (plasma), the AUC0-t plasma came to 2.61 µg·h/mL and the Cmax plasma came out at 1.48 µg/mL. Also, in data set [3], the “Stability of solid state compound, 0 Days (%)” value is 99.18%; the “Stability of solid state compound, 5 Days (%)” value is 98.54%; the “Stability of solid state compound, 10 Days (%)” value is listed as 97.85%.

Consider `CN[C@@]1(c2ccc(C(F)(F)F)cc2)CCC[C@](C)(O)C1=O.Cl` [Compound 73, (2S,6R)-2-hydroxy-2-methyl-6-methylamino-6-(4-(trifluoromethyl)phenyl)cyclohexan-1-one hydrochloride], for which the inhibition in vivo at 20 mg/kg with C57 mice [1] (setting [6]) came out at 68.7 ± 0.6%. Moreover, the inhibition in vivo at 20 mg/kg in the data set on C57 mice [1] (setting [7]) worked out at 39.4 ± 4.4%. Besides, in data set [2], the AUC0-t brain was 6172 ng·h/g and the Cmax brain came out at 5567 ng/g. Besides, the Kp in data set [2] (male, rat, brain and plasma, po, read-out: brain/plasma ratio) was determined as 3.4. For the same molecule, in data set [2] (male, rat, po, plasma), the AUC0-t was determined as 1.82 µg·h/mL and the Cmax worked out at 1.6 µg/mL. In data set [4] (1 mg/kg i.v.), the AUC0-t came out at 941 ngh/mL and the “AUC0-∞” value was found to be 970 ngh/mL. Besides, in data set [4] (5 mg/kg P.O.), the AUC0-t is recorded as 2179 ngh/mL, the “AUC0-∞” value is reported as 2224 ngh/mL and the F is 46.3%. Besides, in data set [4] (male, plasma, iv, 1 mg/kg i.v.), the MRT was 1.84 h, the clearance was 1.06 L/h/kg and the half-life was 1.61 h. Besides, the Vd in data set [4] (male, plasma, iv, 1 mg/kg i.v., read-out: Vss) came out at 1.93 L/kg. Also, in data set [4] (male, plasma, po, 5 mg/kg P.O.), the Cmax was 1.02 µg/mL, the MRT is 2.57 h, the Tmax was 0.42 h and the half-life was 2.33 h. Further, in data set [3], the “Stability of solid state compound, 0 Days (%)” value came to 99.94%; the “Stability of solid state compound, 5 Days (%)” value is 99.90%; the “Stability of solid state compound, 10 Days (%)” value stood at 99.88%. For the same molecule, the “Stability of solid state compound, 30 Days (%)” value in data set [3] (30 days) turned out to be 99.89%.

Regarding `CN[C@]1(c2ccccc2Cl)CCCCC1=O` [S-ketamine], the inhibition in vivo at 10 mg/kg in the data set on C57 mice [5] (setting [6]) amounted to 20.7 ± 3.7%; with C57 mice [5] (setting [7]) it was 23.6 ± 1%.

A word on the Cmax: it is the peak of the concentration-time curve. Broadly, the MRT is a mean duration of stay, worked out from the concentration-time curve. What is called clearance is the rate of elimination divided by the concentration. Read a low clearance as a low capacity for elimination. As usually defined, the half-life is how long it takes for the measured level to halve. A high value points to slow loss. For orientation: Tmax means the time from dosing to the highest level.

These data come from US20250177324A1, “A[…], AND PREPARATION METHOD THEREFOR AND USE THEREOF” (SHANGHAI ZHIGEN PHARMACEUTICAL & TECHNOLOGY CO. LTD., priority 2022, published 2025).
